Data: PubChem BioAssay AID1919004 (Molecular Pharmacology Branch, DTP, NCI, 2023)

Test system: 883617-216-R-J1-PDC complex spheroids, growth, % test/control
Experiment: Anticancer human tumor 883617-216-R-J1-PDC patient-derived bladder carcinoma cell line growth inhibition [AhR]
Conditions: for IC50: curve of first compound; for viability, T/C: stronger effect = lower value
Outline: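 Complex tumor spheroids co-cultured with HUVEC and human MSC stroma; AhR antagonists tested in combination with standard-of-care and investigational agents. Top concentration at or near clinical Cmax (else 10 microM), half-log dilutions; growth expressed as percent test/control.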

[1] = second compound 0.1 µM, first compound 0.0316 µM
[2] = second compound 0.1 µM, first compound 0.1 µM
[3] = second compound 0.1 µM, first compound 0.316 µM
[4] = second compound 0.1 µM, first compound 1 µM
[5] = second compound 0.1 µM, first compound 3.16 µM
[6] = second compound 0.1 µM, first compound 10 µM
[7] = second compound 0.316 µM, first compound 0.0316 µM
[8] = second compound 0.316 µM, first compound 0.1 µM
[9] = second compound 0.316 µM, first compound 0.316 µM
[10] = second compound 0.316 µM, first compound 1 µM
[11] = second compound 0.316 µM, first compound 3.16 µM
[12] = second compound 0.316 µM, first compound 10 µM
[13] = second compound 1 µM, first compound 0.0316 µM
[14] = second compound 1 µM, first compound 0.1 µM
[15] = second compound 1 µM, first compound 0.316 µM
[16] = second compound 1 µM, first compound 1 µM
[17] = second compound 1 µM, first compound 3.16 µM
[18] = second compound 1 µM, first compound 10 µM
[19] = second compound 3.16 µM, first compound 0.0316 µM
[20] = second compound 3.16 µM, first compound 0.1 µM
[21] = second compound 3.16 µM, first compound 0.316 µM
[22] = second compound 3.16 µM, first compound 1 µM
[23] = second compound 3.16 µM, first compound 3.16 µM
[24] = second compound 3.16 µM, first compound 10 µM
[25] = second compound 10 µM, first compound 0.0316 µM
[26] = second compound 10 µM, first compound 0.1 µM
[27] = second compound 10 µM, first compound 0.316 µM
[28] = second compound 10 µM, first compound 1 µM
[29] = second compound 10 µM, first compound 3.16 µM
[30] = second compound 10 µM, first compound 10 µM
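Note: exposure lasted 7 days after dosing on day 3 of spheroid growth.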

Structure (SMILES) | IC50 (second compound 0.1 µM) [nM] | IC50 (second compound 0.316 µM) [nM] | IC50 (second compound 1 µM) [nM] | IC50 (second compound 3.16 µM) [nM] | IC50 (second compound 10 µM) [nM] | viability, T/C [1] [%] | viability, T/C [2] [%] | viability, T/C [3] [%] | viability, T/C [4] [%] | viability, T/C [5] [%] | viability, T/C [6] [%] | viability, T/C [7] [%] | viability, T/C [8] [%] | viability, T/C [9] [%] | viability, T/C [10] [%] | viability, T/C [11] [%] | viability, T/C [12] [%] | viability, T/C [13] [%] | viability, T/C [14] [%] | viability, T/C [15] [%] | also measured
Nc1ccn(C2OC(CO)C(O)C2(F)F)c(=O)n1 (stereo not given) + Cc1ccccc1N=Nc1ccc(NC(=O)c2ccnn2C)c(C)c1 | < 31.6 | < 31.6 | < 31.6 | < 31.6 | < 31.6 | 27.8 | 26.8 | 35.4 | 32.4 | 30.2 | 32.2 | 25.1 | 26.1 | 32.5 | 33.5 | 35.2 | 37.5 | 28.6 | 22.8 | 31.5 | viability, T/C [16]: 36%; viability, T/C [17]: 34.2%; viability, T/C [18]: 31.7%; viability, T/C [19]: 26.1%; viability, T/C [20]: 22.3%; viability, T/C [21]: 31%; viability, T/C [22]: 31.3%; viability, T/C [23]: 37.3%; viability, T/C [24]: 32.4%; viability, T/C [25]: 36.3%; viability, T/C [26]: 27.8%; viability, T/C [27]: 29.4%; viability, T/C [28]: 34.5%; viability, T/C [29]: 31.1%; viability, T/C [30]: 32.4%
O=C(C=Cc1cccc(S(=O)(=O)Nc2ccccc2)c1)NO + Cc1ccccc1N=Nc1ccc(NC(=O)c2ccnn2C)c(C)c1 | 1570 | 1730 | 1370 | 1530 | 1580 | 86.6 | 80 | 77.1 | 56.6 | 36.6 | 2.17 | 89.2 | 88.1 | 77.6 | 68 | 32 | 2.44 | 76.7 | 96.8 | 69.1 | viability, T/C [16]: 56.8%; viability, T/C [17]: 31.2%; viability, T/C [18]: 1.92%; viability, T/C [19]: 70.9%; viability, T/C [20]: 87.2%; viability, T/C [21]: 73.3%; viability, T/C [22]: 62.9%; viability, T/C [23]: 28.2%; viability, T/C [24]: 1.87%; viability, T/C [25]: 74.6%; viability, T/C [26]: 76.3%; viability, T/C [27]: 68.1%; viability, T/C [28]: 63.1%; viability, T/C [29]: 32%; viability, T/C [30]: 2.57%
O=C(c1cc(Cc2n[nH]c(=O)c3ccccc23)ccc1F)N1CCN(C(=O)C2CC2)CC1 + Cc1ccccc1N=Nc1ccc(NC(=O)c2ccnn2C)c(C)c1 | > 10000 | > 10000 | > 10000 | > 10000 | > 10000 | 88.7 | 90.9 | 98.7 | 84.3 | 84.1 | 81 | 84.7 | 82.1 | 76.5 | 86.5 | 74.8 | 85.4 | 89 | 83.2 | 87.2 | viability, T/C [16]: 80.7%; viability, T/C [17]: 80.7%; viability, T/C [18]: 71%; viability, T/C [19]: 82.8%; viability, T/C [20]: 85.6%; viability, T/C [21]: 86.8%; viability, T/C [22]: 75.2%; viability, T/C [23]: 71.3%; viability, T/C [24]: 73.9%; viability, T/C [25]: 82.3%; viability, T/C [26]: 76.8%; viability, T/C [27]: 78.9%; viability, T/C [28]: 70.6%; viability, T/C [29]: 65.9%; viability, T/C [30]: 64.4%
